According to paper PMC11532494 (Nature Communications, 2024):
Where “and” joins values, the source holds several entries; their conditions need not be identical. Equal values may be shown once. Read-outs that look alike come from different tables or passages of the source.

What was measured:
BsAcuC (2c) [1] = target: T1, BsAcuC (2c) (Bacillus subtilis, UniProt P39067); experiment: Dose-response inhibition assay; assay type: biochemical; conditions: 40 µM LGKac; for IC50: 200 nM enzyme, 30 min, 37 °C
T1 construct: made in house; host or cells: E. coli BL21 (DE3)
T1 sequence (P39067 1-387): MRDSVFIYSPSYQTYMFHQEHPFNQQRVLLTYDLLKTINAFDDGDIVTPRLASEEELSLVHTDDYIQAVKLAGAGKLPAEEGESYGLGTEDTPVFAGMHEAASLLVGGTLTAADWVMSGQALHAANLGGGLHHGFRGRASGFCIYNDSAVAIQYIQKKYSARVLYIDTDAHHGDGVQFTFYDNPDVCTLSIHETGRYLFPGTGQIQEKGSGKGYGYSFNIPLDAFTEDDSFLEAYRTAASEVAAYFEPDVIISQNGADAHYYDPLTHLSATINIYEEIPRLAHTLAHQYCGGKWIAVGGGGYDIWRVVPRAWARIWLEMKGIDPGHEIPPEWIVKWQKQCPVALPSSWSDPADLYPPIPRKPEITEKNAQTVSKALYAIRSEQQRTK
From the text: Data was transformed to relative enzyme activity (%) compared to control wells without inhibitor, and fitted to sigmoidal functions with variable slope (Eqs. 3, 4 parameters, h: Hill slope) to afford IC50 values. Assuming fast-on/fast-off competitive inhibition, the Cheng–Prusoff equation (Eq. 4) was employed to transform IC50 data into inhibitory constants (Ki), with KM values as determined previously.3 Res.activity=Res.activitybottom+Res.activitytop−Res.activitybottom/1+10^(logIC50−logI)h 4 Ki=IC50/1+[S]/KM

KpHdaH (1b) [2] = target: T2, KpHdaH (1b) (Klebsiella pneumoniae, UniProt A0A377Z5F6); experiment: biochemical; conditions: for IC50: 15 nM enzyme, 60 min, 37 °C
LcApaH (3) = LcApaH (3) (Legionella cherrii, UniProt A0A0W0SGS1); experiment: biochemical; conditions: for IC50: 0.5 nM enzyme, 30 min, 37 °C
LpApaH (3) = LpApaH (3) (Legionella pneumophila, UniProt A0A2S6EWV0); experiment: biochemical
RwDmhA (1b) [3] = target: T3, RwDmhA (1b) (Rhizorhabdus wittichii, UniProt A0A067XIQ6); experiment: biochemical; conditions: for IC50: 30 nM enzyme, 60 min, 37 °C
(UniProt A0A2N0XRJ0) = experiment: biochemical; design: species or system Vibrio sp.; conditions: for IC50: 60 µM QPKKac, 1.5 nM enzyme, 60 min, 37 °C
BsAcuC (2c) [4] = target: T1, BsAcuC (2c); experiment: Inhibitor screening assay (10 µM or 1 µM); assay type: biochemical; conditions: pre-screening at 10 µM or 1 µM inhibitor
From the text: Data was transformed to relative enzyme activity (%) compared to control wells without inhibitors.

KpHdaH (1b) [5] = target: T2, KpHdaH (1b); experiment: biochemical; conditions: for remaining activity at 1 µM: inhibitor 1 µM; for remaining activity at 10 µM: inhibitor 10 µM
RwDmhA (1b) [6] = target: T3, RwDmhA (1b); experiment: biochemical; conditions: for remaining activity at 1 µM: inhibitor 1 µM
VcHdaH (5b) = conditions: VcHdaH (5b)+TSA control; for RFU: 20 nM enzyme, 37 °C, single replicates; for RFU, mean: mean of n = 3
HsHDAC11 (5f) = conditions: cited from earlier work
PsApaH (4) = PsApaH (4) (Pseudomonas sp. M30-35, UniProt A0A1Y0KY79); experiment: biochemical
BsAcuC = BsAcuC (Bacillus subtilis, UniProt P39067); assay type: biochemical; conditions: substrate with BsAcuC
KpHdaH H144A = assay type: biochemical, Klebsiella pneumoniae
D20-37KpHdaH = assay type: biochemical, Klebsiella pneumoniae; conditions: substrate with D20-37KpHdaH (L1-loop deletion)
[7] = decadic log of IC50, read-out: Log[IC50(M)] (converted)
[8] = Log[IC50(M)], decadic log of IC50, 60 µM QPKKac

CC(/C=C/C(=O)NO)=C\[C@@H](C)C(=O)c1ccc(N(C)C)cc1 [TSA, trichostatin A]
IC50 (BsAcuC (2c) [1]; read-out: IC50): 5.93e-07 M
Ki (BsAcuC (2c) [1]; calculated using the Cheng–Prusoff equation): 0.4 µM
IC50 (BsAcuC (2c) [1]; [7]): 6.31e-07 M
IC50 (KpHdaH (1b) [2]; IC50, 60 µM QPKKac): ≤ 1.07e-08 M
Ki (KpHdaH (1b) [2]; Ki, calculated using the Cheng–Prusoff equation, 60 µM QPKKac): ≤ 0.00247 µM
IC50 (KpHdaH (1b) [2]; [8]): ≤ 1.07e-08 M
IC50 (LcApaH (3); IC50, 40 µM LGKac): 1.04e-08 M
Ki (LcApaH (3); Ki, calculated using the Cheng–Prusoff equation, 40 µM LGKac): 0.00395 µM
IC50 (LcApaH (3); Log[IC50(M)], decadic log of IC50, 40 µM LGKac): 1.05e-08 M
IC50 (LpApaH (3); IC50): 7.17e-09 M
Ki (LpApaH (3); Ki): 0.00247 µM
IC50 (LpApaH (3); Log[IC50(M)]): 7.94e-09 M
Ki (RwDmhA (1b) [3]): 0.356 µM
IC50 (RwDmhA (1b) [3]; IC50, 60 µM QPKKac): 8.65e-07 M
IC50 (RwDmhA (1b) [3]; [8]): 8.71e-07 M
Ki ((UniProt A0A2N0XRJ0)): 0.0111 µM
IC50 ((UniProt A0A2N0XRJ0); read-out: IC50): 2.54e-08 M
IC50 ((UniProt A0A2N0XRJ0); [7]): 2.51e-08 M
inhibition of BsAcuC (2c) in the initial screen, in words (BsAcuC (2c) [4]): only weakly inhibited
remaining activity at 1 µM (KpHdaH (1b) [5]; individual replicates): 2.1%
remaining activity at 1 µM (KpHdaH (1b) [5]; mean): 2.15%
remaining activity at 10 µM (KpHdaH (1b) [5]; individual replicates): -0.2%
remaining activity at 10 µM (KpHdaH (1b) [5]; mean): -0.2%
remaining activity at 1 µM (RwDmhA (1b) [6]; individual replicates): 45.9%
remaining activity at 1 µM (RwDmhA (1b) [6]; mean): 45.5%
remaining activity at 10 µM (RwDmhA (1b) [6]; inhibitor 10 µM, mean): 7.3%
RFU (VcHdaH (5b); 10 µM peptide 2 (S2), 45 min): 14 RFU and 2 RFU and 59 RFU
RFU, mean (VcHdaH (5b); 10 µM peptide 2 (S2)): 25 RFU
RFU (VcHdaH (5b); 10 µM peptide 2a (S2a), 30 min): -513 RFU and -208 RFU and -504 RFU
RFU, mean (VcHdaH (5b); 10 µM peptide 2a (S2a)): -408 RFU
RFU (VcHdaH (5b); 20 µM Boc-Lys(Ac)-AMC, 30 min): 8 RFU and -7 RFU and -73 RFU
RFU, mean (VcHdaH (5b); 20 µM Boc-Lys(Ac)-AMC): -24 RFU
inhibition of HsHDAC11 (5f), in words (HsHDAC11 (5f)): only weakly inhibited
IC50 (PsApaH (4)): ≤ 0.0181 µM
Ki (PsApaH (4)): ≤ 0.00756 µM

CC(=O)NCCCC[C@H](NC(=O)OC(C)(C)C)C(=O)Nc1ccc2c(C)cc(=O)oc2c1 [Boc-Lys(Ac)-AMC]
AMC fluorescence (BsAcuC): 768 a.u.
AMC fluorescence (KpHdaH H144A; substrate with KpHdaH H144A (first of two columns with this head)): 2059 a.u.
AMC fluorescence (KpHdaH H144A; substrate with KpHdaH H144A (second of two columns with this head)): 31 a.u.
AMC fluorescence (D20-37KpHdaH): 1597 a.u.
